Results reported in US20030044412A1, “Membrane estrogen receptor-directed therapy in breast cancer” (priority 2002, published 2003).
Read-outs that look alike come from different tables or passages of the source.

How the values were obtained:
[1] = system: MCF-7 human breast cancer cells; test: Assay of cell proliferation in vitro (cell counts); assay type: cell-based; details: for cell growth after brief treatment with BSA conjugate: 0.5 μM for 10 min, 72 h in estrogen-free media
[2] = system: MAPK, ERK-1 (p44) and ERK-2 (p42); test: p44/42 MAPK phosphorylation/activity in MCF-7 cells; assay type: cell-based, human
Akt kinase = Akt kinase activity (phosphorylated GSK-3 densitometry) in MCF-7 cells; assay type: cell-based, human
[3] = system: MAPK, ERK-1 (p44) and ERK-2 (p42); details: independent report (40); cited from earlier work
[4] = system: surface membrane ER of MCF-7 (MCF-7 PAR) breast cancer cells; test: Membrane labeling with E2β-BSA-FITC, fluorescent microscopy and flow cytometry; assay type: binding, human
estrogen receptor = test: Serine phosphorylation of estrogen receptor in human breast cancer cells; assay type: cell-based; details: prior exposure, 15 minutes after estrogen
Description: FIG. 12 is a gel showing that the MAPKK (MEK) inhibitor, PD 98059 (PD), reduces estrogen (E2)-induced serine phosphorylation of estrogen receptor. Serine phosphorylation of estrogen receptor in human breast cancer cells was assessed at 15-60 min after treatment with E2 alone or in combination with PD 98059
This blockade of estrogen-induced MAP kinase activation by PD 980959 results in the suppression of estrogen-induced growth of MCF-7 breast cancer cells (see FIG. 13).

[5] = target: plasma membranes from MCF-7 human breast cancer cells (membrane-associated estrogen receptor) (Homo sapiens, UniProt P03372); details: 100-fold molar excess of competitor
[6] = target: T1, HER-2 receptor / estrogen receptor association (Homo sapiens, UniProt P04626+P21860); test: Immunoprecipitation/Western blot of HER-2 receptor with ER; assay type: cell-based; details: 10 nM, 5-60 minutes, MCF-7 cells
T1 construct: endogenous in cells; host or cells: MCF-7 PAR
Description: MCF-7 breast cancer cells were treated in vitro for 5-60 minutes with 10 nM heregulin, a ligand known to activate HER-2/HER-3 receptors (3). Lysates were prepared and processed as described before (3). Samples were immunoprecipitated with anti-HER-2 antibody (IP:HER-2 receptor) prior to electrophoresis and Western blotting with anti-ER antibody H222 (IB: estrogen receptor). Estrogen receptor normally occurs as a 65- to 70-kd protein (3). The experiment shown here is representative of results from 4 other experiments. In independent experiments in which samples were immunoprecipitated with anti-ER antibody prior to electrophoresis and Western blotting with anti-HER-2 antibody, a similar association between ER and HER-2 receptors was found.
To further evaluate prior reports of cross-communication between ER and HER-2 receptors (3,24,29,54), MCF-7 PAR cells were treated in vitro with heregulin, a ligand for activation of HER-2/HER-3 receptor heterodimers (3). […] MCF-7 breast cancer cells were treated in vitro for 5-60 minutes with 10 nM heregulin, a ligand known to activate HER-2/HER-3 receptors (3). Lysates were prepared and processed as described before (3). Samples were immunoprecipitated with anti-HER-2 antibody (IP: HER-2 receptor) prior to electrophoresis and Western blotting with anti-ER antibody H222 (IB: estrogen receptor). […]

6 keto-17α-estradiol 6-(o-carboximethyloxime:BSA [Ab E2α-BSA]
cell growth after brief treatment with BSA conjugate [1]: not

17β-estradiol 17-hemisuccinate covalently linked to bovine serum albumin [Ab E2β-BSA]
cell growth after brief treatment with BSA conjugate [1]: stimulates cell growth | proliferative response to short-term treatment ([1]; 10 min treatment, counted after 48 hrs in estrogen-free media, P<0.001): stimulate cell growth | phosphorylation of MAPK isoforms ([2]; 10 nM E2β, E2α, 0.5 μM BSA conjugates): phosphorylation of MAPK isoforms is again evident | activation of Akt kinase (Akt kinase; 10 nM E2β or 0.5 μM E2β-BSA for 20 min): significant activation

N#CC(=C(/N)Sc1ccccc1N)/C(C#N)=C(\N)Sc1ccccc1N [Ab U0126]
Inhibition of MCF-7 cell growth ([1]; 10 μM for 2 h before VH, 10 nM E2 or 1 μM E2-BSA, 72 h): Inhibition | inhibition of MAPK phosphorylation/activation induced by E2β or E2β-BSA ([2]; Ab2 10 μg/ml 2 h or U0126 25 μM 90 min preincubation): prevented activation

C[C@]12CC[C@@H]3c4ccc(O)cc4C[C@@H](CCCCCCCCC[S+]([O-])CCCC(F)(F)C(F)(F)F)[C@H]3[C@@H]1CC[C@@H]2O (stereo partly drawn) [ICI 182,780]
inhibition of estrogen-induced MAPK activity in MCF-7 cells [3]: inhibit | competition for E2β-BSA-FITC surface binding (flow cytometry) [4]: significant reduction | competition for membrane-associated binding of E2β-BSA-FITC [4]: competitively reduced | blockade of proliferative effect of E2β-BSA ([1]; 10 nM ICI 182,780 with 200 nM E2-BSA, 10 min, 48 hrs): blocked | blockade of proliferative effect of E2β-BSA ([1]; 0.5 μM E2β-BSA 10 min, 72 h): blocked | inhibition of estrogen-induced Akt kinase activation (Akt kinase; preincubation: Ab2 10 μg/ml, ICI 182,780 1 μM, LY294002 10 μM): inhibition

COc1cccc(-c2cc(=O)c3ccccc3o2)c1N [PD 98059]
suppression of estrogen-induced serine phosphorylation of the estrogen receptor (estrogen receptor): suppressed | suppression of estrogen-induced growth ([1]; 20 micromolar inhibitor, estradiol-17β at 2 nM): suppression | blockade of estradiol activation of MAP kinase ([2]; pre-treatment, 20 μM): blocked

CC(=O)[C@H]1CC[C@H]2[C@@H]3CCC4=CC(=O)CC[C@]4(C)[C@H]3CC[C@]12C [progesterone]
suppression of [3H]E2β binding to PM by unlabeled competing steroid [5]: essentially uninfluenced | competition for membrane-associated binding of E2β-BSA-FITC ([4]; MCF-7 PAR cells, Ab 1 at 1 μg/ml): not | competition for E2β-BSA-FITC surface binding (flow cytometry) ([4]; MCF-7 cells, P<0.01): not effective

C[C@]12CC[C@H]3[C@@H](CCC4=CC(=O)CC[C@@]43C)[C@@H]1CC[C@@H]2O [testosterone]
suppression of [3H]E2β binding to PM by unlabeled competing steroid [5]: essentially uninfluenced

heregulin
physical association of HER-2 receptor with estrogen receptor [6]: promotes physical association
